Assay results from patent US9834514B2, “Antibiotic sensitivity-restoring and photosensitive agents” (New Mexico Tech Research Foundation, priority 2015, dated 2017).
Converted amounts (≈) assume the structure as drawn. Read-outs that look alike come from different tables or passages of the source.

Legend:
[1] = tested on: S. aureus ATCC 29213; test: Resensitization to antibiotics (log reduction, TABLE 29); format: cell-based
[2] = tested on: S. mutans Ward's 85W 2357; test: as above; format: cell-based; conditions: compound 1 μM; Light (2 min)
[3] = tested on: S. mutans (Ward's 85W 2357); test: Light-activated killing, colony counts; format: cell-based; conditions: for Dark Toxicity: no light; for Light Toxicity: white light 2 minutes
Procedure: Dose-dependent effects of treating bacteria with compound 1 and irradiation with white light were assessed by treating 10^8 CFU/mL of cells with compound 1, followed by irradiation with white light for 2 minutes. Compound 1 was added at a specific concentration to 1 mL of a 10^8 CFU/mL suspension of the respective bacterial cells, and the cells were incubated at 37° C. for approximately 45 minutes on a rotary shaker at 150 rpm. 0.5 mL of the cell suspension was removed and placed into the wells of a sterile ceramic drop plate, and then the cells were irradiated with white light from a Lumacare™ LC 122A light source for 2 minutes at a distance of approximately 3 cm. The time and distance of the light application delivered about 85 J/cm^2 of 400-700 nm light to the sample. After being irradiated, ten-fold dilutions were made of each cell sample. The dilutions were drip-streaked onto a tryptic soy agar (TSA) plate and incubated at 37° C. for 18-24 hours. Enumeration of bacteria was determined from the dilution, which produced a drip-streak containing approximately 30-300 colonies. After counting the colonies, the CFU/mL was calculated by applying the respective dilution factor and a factor of 100 to account for the 10 μL of sample taken. Appropriate controls were prepared, including cells with no treatment, cells with only compound 1 added, and cells only treated with light.
(§1) The error bars in FIG. 13 represent the variations between three replicate determinations.

[4] = tested on: S. mutans (Ward's 85W 2357); test: MIC against S. mutans; format: cell-based; conditions: Streptococcus mutans; compound alone
Excerpt: as §1

[5] = tested on: Trypanosoma cruzi; test: Light-activated killing of parasites (MTT IC50); format: cell-based
Procedure: Trypanosomes were cultured in LIT media+10% FBS. The compounds were added to create a dilution series and incubated with the trypanosomes for 1 hour. The trypanosomes were then irradiated with continuous white light for 2 minutes at a distance of 6.5 cm using a LumaCare™ light source.

[6] = tested on: MRSA; test: Checkerboard assay (FICI); format: cell-based, S. aureus
Procedure: Another method for determining synergy is a checkerboard assay. A checkerboard assay is performed whereby one of the test compounds is serially diluted horizontally across a plate, while the other test compound is serially diluted vertically down the plate. The perpendicular serial dilutions result in combinations of the compounds that range in concentrations from the highest to the lowest of each compound added. In the present study, the checkerboard assay method was adjusted by serially diluting one of the test compounds horizontally and adding the second drug to each well at a concentration of ¼ MIC. The 24-well microtiter plate was then incubated at 37° C. for 18-24 hours on a rotary shaker incubator at 150 rpm. After incubation, MTT reagent was added to each well at a 10% sample volume. Synergy was determined on the lowest concentration of the combined drugs, which produced no purple coloring. Calculation of synergy was determined by the Fractional Inhibitory Concentration Index (FICI): FICI=([Drug 1]Synergy/[Drug1]MIC)+([Drug 2]Synergy/[Drug 2]MIC). FICI≦0.5 is an indication of synergy.
TABLE 17 details the obtained FICI values for compound 1 in combination with varying antibiotics against MRSA, A. baumannii, and E. coli.

[7] = molecular target: T1, NorA efflux pumps in MRSA (Staphylococcus aureus, UniProt P0A0J7); test: Fluorescent binding assay of compound 1 with MRSA and S. aureus; conditions: 1 μM and 10 μM; MRSA compared to S. aureus; FIG. 1
T1 construct: endogenous in cells
T1 sequence (P0A0J7 whole entry): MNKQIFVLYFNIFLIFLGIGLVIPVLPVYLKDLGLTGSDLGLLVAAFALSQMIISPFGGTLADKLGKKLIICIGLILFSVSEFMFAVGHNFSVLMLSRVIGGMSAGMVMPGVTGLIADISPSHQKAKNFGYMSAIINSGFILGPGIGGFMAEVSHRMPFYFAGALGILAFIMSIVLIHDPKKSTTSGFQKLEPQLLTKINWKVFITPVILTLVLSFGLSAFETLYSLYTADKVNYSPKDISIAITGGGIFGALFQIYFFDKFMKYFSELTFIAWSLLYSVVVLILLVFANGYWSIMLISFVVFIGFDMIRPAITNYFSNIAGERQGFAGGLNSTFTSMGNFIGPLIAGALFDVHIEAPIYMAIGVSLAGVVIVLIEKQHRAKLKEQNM
Procedure: The error bars represent data from three independent measurements.
S. aureus and MRSA cells (about 10^8 CFU/mL) were treated with two doses of compound 1 (1 μM and 10 μM), and the cells were incubated at 37° C. for 15 minutes on a rotary shaker set at 150 rpm. After the incubation, the cells were transferred to a 96-well fluorescent plate reader and read every minute for 30 minutes at excitation wavelengths of 334 nm, 380 nm, and 407 nm, and an emission wavelength of 508 nm. The controls were: 1×PBS, compound 1 (1 μM and 10 μM) in 1×PBS, S. aureus in 1×PBS, and MRSA in 1×PBS.

[8] = tested on: S. pyogenes ATCC 8133; test: Resensitization to antibiotics (log reduction, TABLE 29); format: cell-based; conditions: compound 1 μM; Light (2 min)
[9] = tested on: efflux pumps of MRSA; test: Fluorescent competition assay of compound 1 versus INF-55 and reserpine; format: binding; conditions: compound 1 at 5 μM
Procedure: INF-55 and reserpine, NorA EPIs, were used to compete with compound 1 for binding sites on MRSA. Since compound 1 is highly fluorescent, binding could be assessed by measuring the fluorescence at excitation wavelengths of 345 nm, 380 nm, 407 nm, and an emission wavelength of 508 nm. Fluorescent readings were taken every minute for 30 minutes at a lamp energy of 20,000 CW. MRSA cells (about 10^8 CFU/mL) were pelleted at 7500 rpm and resuspended in 1×PBS. The MRSA cells were then pretreated with the appropriate EPI at varying concentrations and incubated for 30 minutes at 37° C. at 150 rpm on a rotary shaker.
INF-55 (FIG. 2) and reserpine (FIG. 3) were added at 1 μM, 10 μM, 50 μM, and 100 μM. After incubation with the appropriate EPI, compound 1 was added at 5 μM and the samples were incubated for 10 minutes. The samples were then placed in a fluorescent plate reader for analysis. The controls used were as follows: 1×PBS, compound 1 (5 μM) in 1×PBS, each respective concentration of the EPI in 1×PBS, compound 1 (5 μM) added to MRSA cells, and each respective EPI added to MRSA cells. The instrument baseline fluorescence drift was corrected by subtracting the fluorescence measured at each time point for the 1×PBS control sample. The error bars represent data from three independent measurements.

[10] = tested on: E. coli; test: MIC against E. coli; format: cell-based; conditions: Escherichia coli
Excerpt: TABLE 18 details the obtained MIC values for cells treated with compound 1, light, PMB, and Polymyxin E (PME) against E. coli.

Q: For `Clc1ccc(/C=C/c2[nH]c3ccccc3c2/C=C/c2ccc(Cl)cc2)cc1` [Compound 1], which “Log Reduction” value ([1]; compound 1 μM, Light (2 min)) is on record?
A: 6

Q: What about the “Log Reduction” value ([1]; compound 5 μM, Norfloxacin (0.5 μg/mL)) of the same compound?
A: 6

Q: And the “Log Reduction” value ([1]; compound 5 μM, Tetracycline (0.1 μg/mL))?
A: 5

Q: And the “Log Reduction” value [2]?
A: 5-6

Q: And the “Dark Toxicity” value ([3]; 0.1 μM)?
A: 2.6 × 10^8 ± 5.57 × 10^7 CFU/mL

Q: What about the “Light Toxicity” value ([3]; 0.1 μM) of the same compound?
A: 2.35 × 10^5 ± 3.50 × 10^5 CFU/mL

Q: What about the “Dark Toxicity” value ([3]; 0.5 μM) of the same compound?
A: 1.44 × 10^8 ± 4.46 × 10^7 CFU/mL

Q: And the “Light Toxicity” value ([3]; 0.5 μM)?
A: 2.33 × 10^3 ± 1.54 × 10^3 CFU/mL

Q: What about the “Dark Toxicity” value ([3]; 1.0 μM) of the same compound?
A: 2.1 × 10^5 ± 1.13 × 10^5 CFU/mL

Q: What about the “Light Toxicity” value ([3]; 1.0 μM) of the same compound?
A: None Detected (<100 CFU/mL)

Q: And the “Dark Toxicity” value ([3]; 5.0 μM)?
A: 5.5 × 10^4 ± 2.48 × 10^4 CFU/mL

Q: What about the “Light Toxicity” value ([3]; 5.0 μM) of the same compound?
A: None Detected (<100 CFU/mL)

Q: And the MIC [4]?
A: 50 to 100 µM (≈ 19.5 to 39 µg/mL)

Q: And the IC50 ([5]; continuous white light 2 minutes, MTT 24 hours later, read-out: Compound + light IC50)?
A: < 0.5 µM

Q: And the IC50 ([5]; no light, read-out: IC50)?
A: > 100 µM

Q: What about the “FIC Index” value ([6]; with Amoxicillin) of the same compound?
A: 0.3

Q: What about the “FIC Index” value ([6]; with Ampicillin) of the same compound?
A: 0.13

Q: And the “FIC Index” value ([6]; with Dicloxicillin)?
A: 0.04

Q: And the “FIC Index” value ([6]; with Norfloxacin)?
A: 0.3

Q: What about the “FIC Index” value ([6]; with Tetracycline) of the same compound?
A: 0.4

Q: What about the “binding of compound 1 by cells (fluorescence)” value [7] of the same compound?
A: MRSA was able to bind more of compound 1

Q: And the “Log Reduction” value [8]?
A: 6-7

Q: And the “competition with INF-55 for binding (fluorescence)” value ([9]; INF-55 1-100 μM, FIG. 2)?
A: able to compete with INF-55 for binding to the efflux pumps of MRSA

Q: What about the “competition with reserpine for binding (fluorescence)” value ([9]; reserpine 1-100 μM, FIG. 3) of the same compound?
A: able to compete with reserpine for binding to the efflux pumps of MRSA

Q: What about the MIC [10] of the same compound?
A: > 200 µg/mL
